Laboratory results reported in patent US4472573A, “Nitrosourea derivative and process for preparing same” (Tanabe Seiyaku Co., Ltd., priority 1981, dated 1984).

Assays:
[1] = Preventive effect against the growth of Ehrlich ascites carcinoma (Method A); format: in vivo, ICR mice; details: mouse, in vivo, ip; maximum dose showing 100% inhibition without causing death; i.p., once a day for 5 days; read-out: MTD (Maximum Tolerated Dose)
Description: (§1) (A) Preventive Effect Against the Growth of Ehrlich Ascites Tumor
(§2) 10^6 tumor cells of Ehrlich ascites carcinoma were inoculated intraperitoneally into a group of five femal mice (ICR mice, body weight: 19-23 g). A test compound was dissolved in a physiological saline solution (In the case where CCNU was employed as the test compound, said compound was suspended in a physiological saline solution containing 0.1% NIKKOL HCO-60 (trademark; a surface active agent manufactured by Nikko Chemicals Co. Ltd.)) and administered intraperitoneally to the mice. The administration of the test compound was begun 24 hours after the inoculation of the tumor cells and performed once a day for 5 days. The volume of ascites in the treated mice were measured after 7 days of the experiment.
(§3) ^(a) T = the average volume of ascites in the treated mice
(§4) C = the average volume of ascites in the untreated mice (control group of
(§5) 100% inhibition for the growth of Ehrlich ascites tumor in mice without
(§6) 100% inhibition for the growth of said ascites tumor)
(§7) ^(e) Therapeutic index = MTD / MED
(§8) *the number of mice died / the number of mice used

[2] = tested on: Ehrlich ascites carcinoma; assay: as above; format: in vivo, ICR mice; details: for Inhibition ratio / Toxicity / the number of mice died / the number of mice used / minimal effective dose: once a day for 5 days; for Therapeutic index: MTD / MED; for minimal effective dose: Mus musculus, Ehrlich, ip, 120 h, minimum dose showing 100% inhibition, i.p., read-out: MED (Minimum Effective Dose)
Description: as §1, §2, §3, §4, §5, §6, §7, §8

Leukemia L-1210 = assay: Effect on life span of mice implanted with Leukemia L-1210 (Method B); format: in vivo, BDF1 mice; details: once a day for 5 days; for 60-day survivors: survived for 60 days / used
Description: (B) Effect on the Life Span of Mice Implanted with Leukemic Cells of L-1210
10^5 leukemic cells of L-1210 were inoculated intraperitoneally into a group of four male mice (BDF1 mice, body weight: 19-23 g). A test compound was dissolved in a physiological saline solution and administered intraperitoneally to the mice. The administration of the test compound was begun 24 hours after the inoculation of the leukemic cells and performed once a day for 5 days. The survival days of the treated mice were observed.
^(a) T = the mean survival days of the treated mice
C = the mean survival days of the untreated mice (control group of mice)
^(c) 60day survivors = the number of mice survived for 60 days / the […]

lymphoid leukemia L-1210 = details: U.S. Pat. No. 4,086,415; cited from earlier work
leukemic cells = details: Japanese Patent Publication (unexamined) No. 141815/1976; cited from earlier work

Structure (SMILES) | MTD [1] [mg/kg/day] | Inhibition ratio ([2]; 0.39 mg/kg/day i.p.) [%] | Inhibition ratio ([2]; 0.78 mg/kg/day i.p.) [%] | Inhibition ratio ([2]; 3.12 mg/kg/day i.p.) [%] | Inhibition ratio ([2]; 12.5 mg/kg/day i.p.) [%] | Inhibition ratio ([2]; 50 mg/kg/day i.p.) [%] | Toxicity ([2]; 100 mg/kg/day i.p.) | the number of mice died / the number of mice used ([2]; 100 mg/kg/day i.p.) | Therapeutic index [2] | minimal effective dose [2] [mg/kg/day] | ILS (Leukemia L-1210; 12.5 mg/kg/day i.p.) [%] | 60-day survivors (Leukemia L-1210; 12.5 mg/kg/day i.p.) | ILS (Leukemia L-1210; 25 mg/kg/day i.p.) [%] | 60-day survivors (Leukemia L-1210; 25 mg/kg/day i.p.) | ILS (Leukemia L-1210; 50 mg/kg/day i.p.) [%] | 60-day survivors (Leukemia L-1210; 50 mg/kg/day i.p.) | other results
COCCN(C(=O)N(CCCl)N=O)[C@H]1[C@@H](OC)O[C@H](CO)[C@@H](O)[C@@H]1O [Compound 4, 1-(2-chloroethyl)-1-nitroso-3-(2-methoxyethyl)-3-(methyl α-D-glucopyranosid-2-yl)urea] | 50 | 100 | 100 | 100 | 100 | 100 | Toxic | 3/5 | 128 | 0.39 | > 243.8 | 1/4 | > 650.0 | 4/4 | > 650.0 | 4/4 | Inhibition ratio ([2]; 0.19 mg/kg/day i.p.): 69.6%; ILS (Leukemia L-1210; 6.25 mg/kg/day i.p.): 93.8%; 60-day survivors (Leukemia L-1210; 6.25 mg/kg/day i.p.): 0/4
O=NN(CCCl)C(=O)N[C@@H]1O[C@H](CO)[C@@H](O)[C@H](O)[C@H]1O [GANU, 1-(2-chloroethyl)-1-nitroso-3-(β-D-glucopyranosyl)urea, reference compound] | 12.5 |  |  |  | 100 |  |  |  | 32 | 0.39 |  |  |  |  |  |  | Toxicity ([2]; 25 mg/kg/day i.p.): Toxic; the number of mice died / the number of mice used ([2]; 25 mg/kg/day i.p.): 5/5; life span of mice implanted with L-1210 (lymphoid leukemia L-1210): increase the life span of mice
O=NN(CCCl)C(=O)NC1CCCCC1 [CCNU, 1-(2-chloroethyl)-1-nitroso-3-cyclohexylurea, reference compound] |  |  |  |  |  |  | Toxic | 5/5 | 4 | 12.5 |  |  |  |  |  |  | 
CCCCN(C(=O)N(CCCl)N=O)[C@H]1[C@@H](OC)O[C@H](CO)[C@@H](O)[C@@H]1O [Compound 1, 1-(2-chloroethyl)-1-nitroso-3-n-butyl-3-(methyl α-D-glucopyranosid-2-yl)urea] | 100 |  | 34.1 |  |  |  |  |  | 64 | 1.56 |  |  |  |  |  |  | Inhibition ratio ([2]; 1.56 mg/kg/day i.p.): 100%; Inhibition ratio ([2]; 6.25 mg/kg/day i.p.): 100%; Inhibition ratio ([2]; 25 mg/kg/day i.p.): 100%; Inhibition ratio ([2]; 100 mg/kg/day i.p.): 100%; Toxicity ([2]; 200 mg/kg/day i.p.): Toxic
O=NN(CCCl)C(=O)N[C@@H]1O[C@H](CO)[C@@H](O[C@H]2O[C@H](CO)[C@@H](O)[C@H](O)[C@H]2O)[C@H](O)[C@H]1O [1-(2-chloroethyl)-1-nitroso-3-β-(D-maltosyl)urea] |  |  |  |  |  |  |  |  |  |  |  |  |  |  |  |  | anti-tumor activity against leukemic cells (leukemic cells): show anti-tumor activity against leukemic cells
CCCN(C(=O)N(CCCl)N=O)[C@H]1[C@@H](OC)O[C@H](CO)[C@@H](O)[C@@H]1O [Compound 2, 1-(2-chloroethyl)-1-nitroso-3-n-propyl-3-(methyl α-D-glucopyranosid-2-yl)urea] | 50 | 15.2 | 100 | 100 | 100 | 100 | Toxic | 2/5 | 64 | 0.78 | > 366.3 | 2/4 | > 650.0 | 4/4 | > 650.0 | 4/4 | ILS (Leukemia L-1210; 6.25 mg/kg/day i.p.): 78.8%; 60-day survivors (Leukemia L-1210; 6.25 mg/kg/day i.p.): 0/4
CO[C@H]1O[C@H](CO)[C@@H](O)[C@H](O)[C@H]1N(CC(C)C)C(=O)N(CCCl)N=O [Compound 3, 1-(2-chloroethyl)-1-nitroso-3-isobutyl-3-(methyl α-D-glucopyranosid-2-yl)urea] | 50 | 45.7 | 100 | 100 | 100 | 100 | Toxic | 4/5 | 64 | 0.78 | 114.9 | 0/4 | > 689.5 | 4/4 | > 689.5 | 4/4 | 
O=NN(CCCl)C(=O)N[C@@H]1O[C@H](CO)[C@@H](O[C@@H]2O[C@H](CO)[C@H](O)[C@H](O)[C@H]2O)[C@H](O)[C@H]1O [1-(2-chloroethyl)-1-nitroso-3-β-(D-lactosyl)urea] |  |  |  |  |  |  |  |  |  |  |  |  |  |  |  |  | anti-tumor activity against leukemic cells (leukemic cells): show anti-tumor activity against leukemic cells
O=NN(CCCl)C(=O)N[C@@H]1O[C@H](CO)[C@@H](O)[C@H](O)[C@@H]1O [1-(2-chloroethyl)-1-nitroso-3-β-(D-mannopyranosyl)urea] |  |  |  |  |  |  |  |  |  |  |  |  |  |  |  |  | life span of mice implanted with L-1210 (lymphoid leukemia L-1210): increase the life span of mice
CO[C@H]1O[C@H](CO)[C@@H](O)[C@H](O)[C@H]1N(C)C(=O)N(CCCl)N=O [Compound 5, 1-(2-chloroethyl)-1-nitroso-3-methyl-3-(methyl α-D-glucopyranosid-2-yl)urea] | 100 | 9.8 | 100 |  |  |  |  |  | 128 | 0.78 |  |  |  |  |  |  | Inhibition ratio ([2]; 1.56 mg/kg/day i.p.): 100%; Inhibition ratio ([2]; 6.25 mg/kg/day i.p.): 100%; Inhibition ratio ([2]; 25 mg/kg/day i.p.): 100%; Inhibition ratio ([2]; 100 mg/kg/day i.p.): 100%; Toxicity ([2]; 200 mg/kg/day i.p.): Toxic; the number of mice died / the number of mice used ([2]; 200 mg/kg/day i.p.): 5/5
